Literature values, collected in US8686137B2, “Heterocyclic compounds and their uses” (Amgen Inc., priority 2010, dated 2014).

Assays:
[1] = test system: ovalbumin-induced airway inflammation
p110δ = biological target: T1, p110δ (Homo sapiens, UniProt O00329)
T1 sequence (O00329 1-1044): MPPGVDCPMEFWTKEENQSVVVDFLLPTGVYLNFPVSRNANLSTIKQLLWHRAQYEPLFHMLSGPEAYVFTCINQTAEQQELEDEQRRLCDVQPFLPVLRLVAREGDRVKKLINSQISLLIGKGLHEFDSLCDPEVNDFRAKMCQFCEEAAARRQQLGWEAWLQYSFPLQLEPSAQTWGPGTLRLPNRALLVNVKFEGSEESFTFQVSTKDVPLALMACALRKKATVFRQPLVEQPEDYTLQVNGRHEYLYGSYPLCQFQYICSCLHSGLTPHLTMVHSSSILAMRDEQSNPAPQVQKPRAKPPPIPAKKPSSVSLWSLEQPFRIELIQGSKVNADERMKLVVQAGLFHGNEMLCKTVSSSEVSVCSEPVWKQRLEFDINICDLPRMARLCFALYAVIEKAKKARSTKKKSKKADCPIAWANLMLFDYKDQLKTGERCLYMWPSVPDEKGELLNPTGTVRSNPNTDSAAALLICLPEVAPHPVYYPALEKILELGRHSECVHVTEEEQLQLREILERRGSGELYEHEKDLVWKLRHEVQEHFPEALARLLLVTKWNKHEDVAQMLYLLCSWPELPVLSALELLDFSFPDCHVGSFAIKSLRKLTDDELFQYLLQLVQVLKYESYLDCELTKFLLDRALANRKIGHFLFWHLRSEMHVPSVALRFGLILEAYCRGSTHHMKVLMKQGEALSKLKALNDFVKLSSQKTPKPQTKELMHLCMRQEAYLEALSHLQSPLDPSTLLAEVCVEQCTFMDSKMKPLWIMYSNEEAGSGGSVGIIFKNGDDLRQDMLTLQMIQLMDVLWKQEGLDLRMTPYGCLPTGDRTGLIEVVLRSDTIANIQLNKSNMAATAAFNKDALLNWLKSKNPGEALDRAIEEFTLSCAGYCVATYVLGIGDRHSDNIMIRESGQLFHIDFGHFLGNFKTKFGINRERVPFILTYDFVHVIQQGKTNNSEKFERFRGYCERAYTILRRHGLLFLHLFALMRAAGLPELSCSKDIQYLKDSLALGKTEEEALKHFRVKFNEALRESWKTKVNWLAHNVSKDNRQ

[2] = test system: passive cutaneous anaphylaxis (PCA); conditions: absence of functional delta (compound or p110δ D910A mice)
[3] = test system: mouse model of rheumatoid arthritis; conditions: in vivo
[4] = test system: model of systemic lupus erythematosis; conditions: in vivo

Cc1ccccc1-n1c(Cn2cnc3c(N)ncnc32)nc2cccc(C)c2c1=O [IC87114]
inflammation and disease in a murine model of asthma [1]: significantly ameliorate | inhibits p110δ (p110δ): high nanomolar range (triple digit) | passive cutaneous anaphylaxis (PCA) [2]: significantly reduced | activity against any protein kinases tested (protein kinases): no activity

O=C1NC(=O)/C(=C\c2ccc3nccnc3c2)S1 [AS 605240]
efficacy in a mouse model of rheumatoid arthritis [3]: efficacious | onset of disease in a model of systemic lupus erythematosis [4]: delay onset of disease
